Measurements taken from patent US7790947B2 (priority 2001, dated 2010).

Key:
hemoglobin = hemoglobin (Homo sapiens, UniProt P68871); details: cited from earlier work
TSS-1 production = assay: Inhibition of TSS-1 production by salt or acid residue in absorbent foam; type: cell-based, S. aureus; details: residual salt or acid in dried foam, between 0.1% and 10% weight percent of foam
[1] = tested on: TSST-1 toxin production by S. aureus; details: cited from earlier work
TSST-1 toxin = TSST-1 toxin (Staphylococcus aureus, UniProt P06886); details: mechanism unknown; cited from earlier work
Sequence of TSST-1 toxin (P06886 41-234 limits assumed): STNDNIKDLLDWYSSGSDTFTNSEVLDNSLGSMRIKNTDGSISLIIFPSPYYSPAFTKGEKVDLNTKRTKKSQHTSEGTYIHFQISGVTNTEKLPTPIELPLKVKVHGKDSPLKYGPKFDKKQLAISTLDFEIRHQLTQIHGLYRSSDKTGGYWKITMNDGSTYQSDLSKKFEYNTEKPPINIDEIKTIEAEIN

Sequence of hemoglobin (P68871 2-147 limits assumed): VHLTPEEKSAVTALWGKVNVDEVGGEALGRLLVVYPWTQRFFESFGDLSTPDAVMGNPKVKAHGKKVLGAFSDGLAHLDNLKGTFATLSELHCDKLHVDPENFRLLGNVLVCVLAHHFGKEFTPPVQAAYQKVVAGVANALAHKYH
Sequence of hemoglobin (P69905 2-142 partner limits assumed): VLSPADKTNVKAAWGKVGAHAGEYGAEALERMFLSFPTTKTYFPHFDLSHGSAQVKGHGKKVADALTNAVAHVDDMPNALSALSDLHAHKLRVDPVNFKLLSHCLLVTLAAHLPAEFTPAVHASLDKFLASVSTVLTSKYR

O=C(O)C(COP(=O)(O)O)OP(=O)(O)O (stereo not drawn) [BPG, 2,3-bisphosphoglycerate]
lowering of the affinity of oxygen for hemoglobin (factor) (hemoglobin): 26

[Ca+2].[Cl-].[Cl-] [CaCl2]
inhibition of TSS-1 production (TSS-1 production): inhibit TSS-1 production

[Cl-].[Cl-].[Mg+2] [MgCl2]
inhibition of TSS-1 production (TSS-1 production): inhibit TSS-1 production

O=C1O[C@H]([C@@H](O)CO)C(O)=C1O [ascorbic acid]
inhibition of TSS-1 production (TSS-1 production): inhibit TSS-1 production | effect on toxin (TSST-1) production by S. aureus [1]: reduce toxin production and/or deactiviate the toxin TSST-1 | deactivation of the toxin (TSST-1 toxin): deactivates the toxin

OCC(O)CO [glycerol]
effect on toxin (TSST-1) production by S. aureus [1]: reduce toxin production and/or deactiviate the toxin TSST-1

O=C1O[C@H]([C@@H](O)CO)C([O-])=C1O.[Na+] [sodium ascorbate]
inhibition of TSS-1 production (TSS-1 production): inhibit TSS-1 production

tocopherol
effect on toxin (TSST-1) production by S. aureus [1]: reduce toxin production and/or deactiviate the toxin TSST-1
